Where “and” joins values, the source holds several entries; their conditions need not be identical. Equal entries are not always repeated. Entries after “also recorded” stand apart in the source; their conditions may differ. Where two headings read alike, the source gives them in different places.
How the values were obtained:
pro-MMP-1, h-CM cells = test: pro-MMP-1 release from h-CM cells; format: cell-based, human; settings: BK 10 nM to 1 µM, 24 h at 37 °C; n=6
Protocol: (§1) Measurement of extracellular signal-regulated kinase-1/2 phosphorylation and pro-matrix metalloproteinase production
(§2) The release of pro-MMP-1/2/3 in the extracellular medium of h-CM cells exposed to kinin’s, for 24 h at 37 °C [29, 30] was studied next. Thus, h-CM cells isolated from multiple human donor eyes were cultured as described above and then serum-starved for 24 h prior to the addition of any test compound. Cells were incubated with the vehicle or test compound for 24 hours at 37 °C after which the medium was collected and concentrated ten-fold using Centricon concentrators (Millipore Corp., Bellireca, MA). Equal volumes of this concentrate were loaded on 10% SDS-polyacrylamide gels (SDS-PAGE) and the proteins separated and transferred to nitrocellulose membranes. The membranes were then blocked with 5% non-fat dry milk (Bio-Rad Laboratories, Hercules, CA) followed by incubation with antibodies to pro-MMP-1, pro-MMP-2, or pro-MMP-3 for 12 hours at 4 °C with gentle shaking. After washing, these membranes were incubated with appropriate secondary antibodies (HRP-conjugated; dilution 1:3000) for 1 hour at 20 °C. […] For chemiluminescent detection, the membranes were treated with enhanced chemiluminescent reagent (Amersham Pharmacia, Piscataway, NJ) and the signal was quantified using a Bio-Rad Versadoc imaging system (Bio-Rad Laboratories, Hercules, CA).

rabbit eyes = test: IOP after intravitreal injection in Dutch-Belt rabbits; format: in vivo, pigmented Dutch-Belt rabbit; settings: for IOP reduction, rabbit: 50 µg intravitreal, n=7–10
Protocol: Intraocular pressure measurements
To extend our in vitro observations of the high density of B2-receptor protein in human and cynomolgus monkey ciliary muscle and non-pigmented ciliary epithelium, we studied the effects of topically administered BK (100 µg total dose in a sterile vehicle) on IOP in normotensive and TM-ablated hypertensive eyes of these animals. […] However, since we could not subject the monkeys to additional studies involving BK delivery to the eye interior, it was decided that intravitreal (ivt) injection of BK into pigmented Dutch-Belt rabbits would be worth pursuing. Thus, after light corneal anesthesia with 0.1% proparacaine, basal IOPs were determined in up to 10 Dutch-Belt rabbits using an Alcon Pneumotonometer (Alcon Laboratories Inc., Fort Worth, TX). After this time, 50 µg of BK (B2 agonist) or Des-Arg^9-BK (B1 agonist) in 20 µl of sterile basal salt solution (BSS plus), or just BSS plus vehicle, was injected ivt into one eye of each rabbit and the IOP determined at various times thereafter. Authors confirm adherence to the ARVO Statement for Animals in Ophthalmic and Vision Research, with all animal studies conducted according the guidelines for Animal Care and Use at Alcon Research Ltd.
Figure 8 Time-course of changes in rabbit intraocular pressure (IOP) with different kinin peptide agonists. Three groups of Dutch-Belt rabbits (n=7–10/group) were injected ivt in one eye with either vehicle or 50 µg of BK or 50 µg of Des-Arg^9-BK dissolved in the vehicle and the IOP monitored over time. Data are mean±SEM.

[1] = system: certain endothelial and neuronal cells; settings: ref [3],[28]; cited from earlier work
h-CM cells [2] = test: PGD2 production in h-CM cells; format: cell-based, human; settings: with or without BK; limit of detection PGD2=200 pg/ml
Protocol: (§4) This involved stimulating h-CM cells and CHO-B2 cells with various concentrations of test peptides and measuring the release of various PGs in the extracellular medium. The concentration-dependent effects of these peptides on total PGs, and specifically PGE2, PGF2α, and PGD2 release, were studied. Cells were grown as a monolayer in a 24-well plate (precoated with fibronectin) to confluence and subsequently serum-starved overnight before the experiment. On the day of the experiment, just before the drug was added, the wells were aspirated completely, and 990 µl basal medium and 10 µl 100× series of concentrations of the different peptide agonists were added to achieve the desired final concentrations of each compound (e.g., 0.1 nM to 10 µM). […] At the end of the incubation period, the cellular supernatants were collected and stored at −80 °C or used immediately to determine the PG content. Cell supernatants were tested for total PG levels and sub-species of PGs (PGE2, PGF2α, and PGD2) using specific competitive enzyme immunoassays (Cayman Chemical Co., Ann Arbor, MI) as directed in the manufacturer’s recommended protocols using the supplied standards and reagents. The limits of detection for various PGs were as follows: total PGs=29 pg/ml; PGE2=15 pg/ml; PGF2α=9 pg/ml; PGD2=200 pg/ml.

primary h-TM cells = format: cell-based, human; settings: preliminary data, values rounded-off, read-out: Agonist potency at stimulating [Ca^2+]i mobilization in primary h-TM cells (EC50)
CHO-B2 cells = format: cell-based, Chinese hamster ovary cells, human cloned B2 receptor; settings: 1 h at 37 °C; enzyme immunoassay; mean ± SEM, 3 to 6 experiments; read-out: PGF2α production in CHO-B2 cells (EC50)
Protocol: (§5) Measurement of prostaglandins in human ciliary muscle and Chinese hamster ovary cells expressing B2 receptors
as §4

[3] = system: isolated perfused human and bovine anterior eye segments; settings: ref [15]; cited from earlier work
From the text: (§3) Despite the presence of the kallikrein/kinin enzyme and receptor system in the h-CM tissue and cells, with B2-receptor immunoreactivity also found in the cynomolgus monkey CM (Figure 2B), the physiologic roles of BK and its receptors in this tissue and cells remain to be elucidated. Indeed, there are conflicting reports in the literature regarding the functions and involvement of BK in modulating IOP in various animal models.

[4] = system: isolated perfused bovine eyes; settings: ref [16]; cited from earlier work
From the text: as §3

albino rabbits = settings: topical dosing, ref [8]; cited from earlier work
From the text: as §3

[5] = cited from earlier work
From the text: as §3

cynomolgus monkey eyes = settings: intracameral, ref [12], cited from earlier work
From the text: as §3

[6] = system: ERK1/2 phosphorylation, h-CM cells; test: ERK1/2 phosphorylation in h-CM cells (HTRF); format: cell-based, human; settings: 100 nM
Protocol: as §1
In the current assay, an homogeneous-time-resolved fluorescence (HTRF) assay (CisBio; Bedford, MA) was used. The HTRF assay is based on a sandwich immunoassay using an antiphospho-ERK1/2 antibody labeled with D2 and an anti-ERK1/2 antibody labeled with Eu^3+-Cryptate. In brief, h-CM cells (passage 7) were cultured in 96-well half-area white plates and incubated overnight, at 37 °C in CO2 atmosphere. […] Lysis buffer provided in the HTRF kit was used to lyse the cells at 23 °C with shaking for 30 min after the agonist treatment. HTRF conjugates containing phospho-ERK1/2 antibodies were then added to the lysates and incubated for an additional 2 h at 23 °C. The fluorescence signal was recorded using a Tecan M1000 fluorescence plate reader ([…]) at 620 nm for the donor and 665 nm for the acceptor.

h-CM cells [7] = format: cell-based, human; settings: 1 h at 37 °C; enzyme immunoassay; mean ± SEM, 3 to 6 experiments; read-out: PGF2α production in h-CM cells (EC50)
Protocol: as §5, §4

pro-MMP-2, h-CM cells = test: pro-MMP-2 release from h-CM cells; format: cell-based, human; settings: BK 10 nM to 1 µM, 24 h at 37 °C; n=6
Protocol: as §1, §2

[8] = system: CHO-B2 cells (human cloned B2 receptor); format: cell-based, Chinese hamster ovary cells
Protocol: as §5, §4

[9] = intracameral injection, ref [10],[14]

Question: What does the source list for H-RPPGFSPFR-OH [BK]?
Answer: pro-MMP-1 release vs basal level (pro-MMP-1, h-CM cells): 3.12±0.46 fold; IOP reduction, rabbit (rabbit eyes; 5 h post-injection): 22.9±7.3%; IOP reduction, rabbit (rabbit eyes; 8 h post-injection (maximal)): 37.0±5.6%; Effect on rabbit IOP (rabbit eyes; BK 50 µg intravitreal, 5–8 h post injection): time-dependent reduction in IOP; also recorded: robust lowering of the IOP; Production of NO and cGMP [1]: can elicit production of NO and cGMP; PGD2 release in h-CM cells (h-CM cells [2]): no PGD2 was detected; EC50 (primary h-TM cells): 1 nM; EC50 (CHO-B2 cells): 0.0321 ± 0.0122 nM; Outflow facility [3]: decreased outflow facility; Outflow [4]: apparent increase in outflow; IOP effect (albino rabbits): lowered IOP; IOP effect [5, 9]: raised IOP; Pupil effect [5, 9]: caused intense miosis; IOP effect ([5]; intravenous infusion, ref [9]): lowered IOP; Aqueous humor inflow and outflow ([5]; ref [11]): increased aqueous humor inflow and outflow; Aqueous humor outflow (cynomolgus monkey eyes; no ciliary muscle retrodisplacement): no effect on aqueous humor outflow; Aqueous humor outflow (cynomolgus monkey eyes; with ciliary muscle retrodisplacement): decreased outflow; Increase in ERK1/2 phosphorylation (abstract) [6]: twofold; EC50 (h-CM cells [7]): 15.9 ± 9.2 nM; pro-MMP-2 release vs basal level (pro-MMP-2, h-CM cells): 1.67±0.25 fold; EC50 ([8]; 1 h at 37 °C, enzyme immunoassay, mean ± SEM, 3 to 6 experiments, read-out: Total PGs production in CHO-B2 cells (EC50)): 0.0263 ± 0.0066 nM; BK-induced total PGs production/secretion, CHO-B2 cells ([8]; n=6): 913.6 ± 47.6 pg/mL and 913.6 pg/mL; Elevation in extracellular PGs, CHO-B2 cells ([8]; relative to basal levels): 4.9 fold

From article PMC3693772, “Protein expression, biochemical pharmacology of signal transduction, and relation to intraocular pressure modulation by bradykinin B2 receptors in ciliary muscle” (Molecular Vision, 2013)
